Measured values as given in patent US10183944B2 (Asana Biosciences, LLC, priority 2011, dated 2019).
Where a name gives a salt, the structure may show the parent alone.

What was measured:
JAK2 = JAK2 (Homo sapiens (Human), UniProt O60674); assay: Inhibition of enzymatic JAK2 kinase activity (TR-FRET); assay type: biochemical; details: read-out: IC50 JAK
Summary of the method: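 TR-FRET read-out (Eu antibody donor, Ulight poly Glu-Tyr acceptor, 665/615 nm ratio) after a 60 min RT kinase reaction with ATP, begun following 30 min compound–enzyme preincubation. Stopped by EDTA; inhibition expressed as 100 minus % activity of positive control.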

RBL2H3 cells = assay: Degranulation assay: β-hexosaminidase release during immune complex mediated degranulation; assay type: cell-based, rat; details: Rattus norvegicus, RBL-2H3, Assay Protocol B (96 well format); for inhibition at 1 µM: read-out: Degranulation % inhibition at 1 μM; for EC50: read-out: Degranulation EC50
Summary of the method: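 Fluorometric β-NAG read-out (Ex 355, Em 460 nm; 30 min, RT) of supernatant after DNP-BSA stimulation (45–60 min) of anti-DNP IgE-sensitized RBL2H3 cells. Compounds (0.5% DMSO) added 15 min before antigen; degranulation expressed as % β-hexosaminidase release or inhibition.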

[1] = molecular target: Syk (356-635 amino acids) catalytic domain (Homo sapiens (Human), UniProt P43405); assay: Inhibition of enzymatic Syk kinase activity (radiometric); assay type: biochemical; details: read-out: IC50 Syk
Summary of the method: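 Radiometric filter-binding format: 32P transfer from γ-32P-ATP onto pG4T, scintillation-counted after acid washes of P81 paper. Syk kinase domain (356-635), 0.035–7.5 ng per reaction, was exposed to compound for 30 minutes at room temperature before a 10-minute, 30° C. reaction with ATP (100 μM stock). Inhibition derived from counts with versus without compound.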

Sequence of JAK2 (O60674 808-1132): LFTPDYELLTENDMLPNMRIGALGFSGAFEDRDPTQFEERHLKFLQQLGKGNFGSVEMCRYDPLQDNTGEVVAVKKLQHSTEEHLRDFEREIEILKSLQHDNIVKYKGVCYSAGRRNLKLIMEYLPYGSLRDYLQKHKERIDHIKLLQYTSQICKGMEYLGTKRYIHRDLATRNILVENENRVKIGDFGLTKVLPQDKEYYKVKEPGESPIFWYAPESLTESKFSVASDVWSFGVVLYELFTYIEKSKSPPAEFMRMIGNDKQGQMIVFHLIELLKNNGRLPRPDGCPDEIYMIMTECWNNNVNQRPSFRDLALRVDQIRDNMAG

IC50 (JAK2)	EC50 (RBL2H3 cells)	IC50 [1]	SMILES	inhibition at 1 µM (RBL2H3 cells)
< 50 nM	24 nM	< 10 nM	N#CCC1CCN(c2nc(Nc3ccc(N4CCN(CCF)CC4)cc3)c3c(=O)[nH]ncc3n2)CC1 [Example 276, 2-(1-(4-((4-(4-(2-fluoroethyl)piperazin-1-yl)phenyl)amino)-5-oxo-5,6-dihydropyrimido[4,5-d]pyridazin-2-yl)piperidin-4-yl)acetonitrile]	91%
< 50 nM	42 nM	< 10 nM	O=c1[nH]ncc2nc(N3CCCCCC3)nc(Nc3ccc(N4CCCC(O)C4)nc3)c12 (centres unmarked) [Example 277, 2-(azepan-1-yl)-4-((6-(3-hydroxypiperidin-1-yl)pyridin-3-yl)amino)pyrimido[4,5-d]pyridazin-5(6H)-one]	74%
< 10 nM	21 nM	< 10 nM	N#CCC1CCN(c2nc(Nc3ccc(N4CCCC(CO)C4)cc3)c3c(=O)[nH]ncc3n2)CC1 (centres unmarked) [Example 284, 2-(1-(4-((4-(3-(hydroxymethyl)piperidin-1-yl)phenyl)amino)-5-oxo-5,6-dihydropyrimido[4,5-d]pyridazin-2-yl)piperidin-4-yl)acetonitrile]	92%
< 50 nM	20 nM	< 50 nM	COC1CCN(c2ccc(Nc3nc(N4CCC(CC#N)CC4)nc4cn[nH]c(=O)c34)cc2)CC1 [Example 287, 2-(1-(4-((4-(4-methoxypiperidin-1-yl)phenyl)amino)-5-oxo-5,6-dihydropyrimido[4,5-d]pyridazin-2-yl)piperidin-4-yl)acetonitrile]	97%
< 10 nM	83 nM	< 10 nM	O=c1[nH]ncc2nc(N3CCCCCC3)nc(Nc3ccc(OC4CCNCC4)cc3)c12 [Example 292, 2-(azepan-1-yl)-4-((4-(piperidin-4-yloxy)phenyl)amino)pyrimido[4,5-d]pyridazin-5(6H)-one hydrochloride]	65%
< 50 nM	18 nM	< 10 nM	CC(C)(CO)N1CCCN(c2ccc(Nc3nc(N4CCC(CC#N)CC4)nc4cn[nH]c(=O)c34)cc2)CC1 [Example 297, 2-(1-(4-((4-(4-(1-hydroxy-2-methylpropan-2-yl)-1,4-diazepan-1-yl)phenyl)amino)-5-oxo-5,6-dihydropyrimido[4,5-d]pyridazin-2-yl)piperidin-4-yl)acetonitrile]	99%
< 10 nM	55 nM	< 10 nM	O=C(O)CCc1ccc(Nc2nc(N3CCCCCC3)nc3cn[nH]c(=O)c23)cc1 [Example 304, 3-(4-((2-(azepan-1-yl)-5-oxo-5,6-dihydropyrimido[4,5-d]pyridazin-4-yl)amino)phenyl)propanoic acid]	70%
< 50 nM	834 nM	< 10 nM	N#CCC1CCN(c2nc(Nc3ccc(CCC(=O)O)cc3)c3c(=O)[nH]ncc3n2)CC1 [Example 305, 3-(4-((2-(4-(cyanomethyl)piperidin-1-yl)-5-oxo-5,6-dihydropyrimido[4,5-d]pyridazin-4-yl)amino)phenyl)propanoic acid]	17%
< 10 nM	15 nM	< 10 nM	O=c1[nH]ncc2nc(N3CCCCCC3)nc(Nc3ccc(N(CCO)CCO)cc3)c12 [Example 306, 2-(azepan-1-yl)-4-((4-(bis(2-hydroxyethyl)amino)phenyl)amino) pyrimido[4,5-d]pyridazin-5(6H)-one]	100%
< 10 nM	312 nM	< 10 nM	N#CCC1CCN(c2nc(Nc3ccc(N(CCO)CCO)cc3)c3c(=O)[nH]ncc3n2)CC1 [Example 307, 2-(1-(4-((4-(bis(2-hydroxyethyl)amino)phenyl)amino)-5-oxo-5,6-dihydropyrimido[4,5-d]pyridazin-2-yl)piperidin-4-yl)acetonitrile]	14%
< 10 nM	62 nM	< 10 nM	O=c1[nH]ncc2nc(N3CCCCCC3)nc(Nc3ccc(OC4CCN(CCO)CC4)cc3)c12 [Example 329, 2-(azepan-1-yl)-4-((4-((1-(2-hydroxyethyl)piperidin-4-yl)oxy)phenyl)amino) pyrimido[4,5-d]pyridazin-5(6H)-one]	69%
< 50 nM	31 nM	< 10 nM	O=c1[nH]ncc2nc(N3CCCCCC3)nc(Nc3ccc4[nH]nnc4c3)c12 [Example 339, 4-((1H-benzo[d][1,2,3]triazol-5-yl)amino)-2-(azepan-1-yl)pyrimido[4,5-d]pyridazin-5(6H)-one]	83%

More lines, now with the values behind:

SMILES	IC50 (JAK2)	EC50 (RBL2H3 cells)	IC50 [1]	inhibition at 1 µM (RBL2H3 cells)
COCCN1CCN(c2ccc(Nc3nc(N4CCC(CC#N)CC4)nc4cn[nH]c(=O)c34)cc2)CC1 [Example 256, 2-(1-(4-((4-(4-(2-methoxyethyl)piperazin-1-yl)phenyl)amino)-5-oxo-5,6-dihydropyrimido[4,5-d]pyridazin-2-yl)piperidin-4-yl)acetonitrile]	< 50 nM	33 nM	< 10 nM	73%
N#CCC1CCN(c2nc(Nc3ccc(N4CCN(CCCO)CC4)cc3)c3c(=O)[nH]ncc3n2)CC1 [Example 261, 2-(1-(4-((4-(4-(3-hydroxypropyl)piperazin-1-yl)phenyl)amino)-5-oxo-5,6-dihydropyrimido[4,5-d]pyridazin-2-yl)piperidin-4-yl)acetonitrile]	< 50 nM	39 nM	< 10 nM	87%
N#CCC1CCN(c2nc(Nc3ccc(N4CCCN(CCO)CC4)cc3)c3c(=O)[nH]ncc3n2)CC1 [Example 264, 2-(1-(4-((4-(4-(2-hydroxyethyl)-1,4-diazepan-1-yl)phenyl)amino)-5-oxo-5,6-dihydropyrimido[4,5-d]pyridazin-2-yl)piperidin-4-yl)acetonitrile]	< 10 nM	54 nM	< 10 nM	75%
CC(C)(CO)N1CCN(c2ccc(Nc3nc(N4CCCCCC4)nc4cn[nH]c(=O)c34)cc2)CC1 [Example 265, 2-(azepan-1-yl)-4-((4-(4-(1-hydroxy-2-methylpropan-2-yl)piperazin-1-yl)phenyl)amino)pyrimido[4,5-d]pyridazin-5(6H)-one]	< 10 nM	30 nM	< 10 nM	79%
CC(C)(CO)N1CCN(c2ccc(Nc3nc(N4CCC(CC#N)CC4)nc4cn[nH]c(=O)c34)cc2)CC1 [Example 266, 2-(1-(4-((4-(4-(1-hydroxy-2-methylpropan-2-yl)piperazin-1-yl)phenyl)amino)-5-oxo-5,6-dihydropyrimido[4,5-d]pyridazin-2-yl)piperidin-4-yl) acetonitrile]	< 50 nM	10 nM	< 10 nM	99%
CN(C)CCN1CCN(c2ccc(Nc3nc(N4CCCCCC4)nc4cn[nH]c(=O)c34)cc2)CC1 [Example 267, 2-(azepan-1-yl)-4-((4-(4-(2-(dimethylamino)ethyl)piperazin-1-yl)phenyl)amino)pyrimido[4,5-d]pyridazin-5(6H)-one]	< 10 nM	21 nM	< 10 nM	90%
CN(C)CCN1CCN(c2ccc(Nc3nc(N4CCC(CC#N)CC4)nc4cn[nH]c(=O)c34)cc2)CC1 [Example 268, 2-(1-(4-((4-(4-(2-(dimethylamino)ethyl)piperazin-1-yl)phenyl)amino)-5-oxo-5,6-dihydropyrimido[4,5-d]pyridazin-2-yl)piperidin-4-yl)acetonitrile]	< 50 nM	20 nM	< 10 nM	93%
O=c1[nH]ncc2nc(N3CCCCCC3)nc(Nc3ccc(N4CCN(CC(O)CO)CC4)cc3)c12 (centres unmarked) [Example 273, 2-(azepan-1-yl)-4-((4-(4-(2,3-dihydroxypropyl)piperazin-1-yl)phenyl)amino)pyrimido[4,5-d]pyridazin-5(6H)-one]	< 10 nM	21 nM	< 10 nM	91%
N#CCC1CCN(c2nc(Nc3ccc(N4CCN(CC(O)CO)CC4)cc3)c3c(=O)[nH]ncc3n2)CC1 (centres unmarked) [Example 274, 2-(1-(4-((4-(4-(2,3-dihydroxypropyl)piperazin-1-yl)phenyl)amino)-5-oxo-5,6-dihydropyrimido[4,5-d]pyridazin-2-yl)piperidin-4-yl)acetonitrile]	< 10 nM	81 nM	< 10 nM	59%
O=c1[nH]ncc2nc(N3CCCCCC3)nc(Nc3ccc(N4CCN(CCF)CC4)cc3)c12 [Example 275, 2-(azepan-1-yl)-4-((4-(4-(2-fluoroethyl)piperazin-1-yl)phenyl)amino) pyrimido[4,5-d]pyridazin-5(6H)-one]	< 10 nM	15 nM	< 10 nM	73%
CN1CCN(C(=O)COc2ccc(Nc3nc(N4CCCCCC4)nc4cn[nH]c(=O)c34)cc2)CC1 [Example 283, 2-(azepan-1-yl)-4-((4-(2-(4-methylpiperazin-1-yl)-2-oxoethoxy)phenyl)amino)pyrimido[4,5-d]pyridazin-5(6H)-one]	< 10 nM	39 nM	< 10 nM	71%
